According to paper PMC12102759 (Protein Science : A Publication of the Protein Society, 2025):

Each sequence was assayed on G3BP1 NFT2. Conditions: library DMS-CoV; bait G3BP1 NFT2; prey N; peptide APRITFGGPSDSTGSN; listed as aa = residue placed at this position; column sums to 1.
Assay type: binding, human

| Sequence | DMS PSSM value, D (position 11) | DMS PSSM value, P (position 2) | DMS PSSM value, G (position 8) | DMS PSSM value, S (position 10) | DMS PSSM value, G (position 14) | DMS PSSM value, R (position 3) | DMS PSSM value, S (position 12) | DMS PSSM value, G (position 7) | DMS PSSM value, T (position 5) | DMS PSSM value, F (position 6) |
| --- | --- | --- | --- | --- | --- | --- | --- | --- | --- | --- |
| APRITFGGPSDSTGSN D11I (APRITFGGPSISTGSN) | 0.002718 |  |  |  |  |  |  |  |  |  |
| APRITFGGPSDSTGSN P2S (ASRITFGGPSDSTGSN) |  | 0.0005858 |  |  |  |  |  |  |  |  |
| APRITFGGPSDSTGSN G8S (APRITFGSPSDSTGSN) |  |  | 0.005734 |  |  |  |  |  |  |  |
| APRITFGGPSDSTGSN S10L (APRITFGGPLDSTGSN) |  |  |  | 0.002677 |  |  |  |  |  |  |
| APRITFGGPSDSTGSN G14H (APRITFGGPSDSTHSN) |  |  |  |  | 0.009284 |  |  |  |  |  |
| APRITFGGPSDSTGSN R3V (APVITFGGPSDSTGSN) |  |  |  |  |  | 0.00164 |  |  |  |  |
| APRITFGGPSDSTGSN S12N (APRITFGGPSDNTGSN) |  |  |  |  |  |  | 0.001178 |  |  |  |
| APRITFGGPSDSTGSN D11E (APRITFGGPSESTGSN) | 0.08423 |  |  |  |  |  |  |  |  |  |
| APRITFGGPSDSTGSN D11R (APRITFGGPSRSTGSN) | 0 |  |  |  |  |  |  |  |  |  |
| APRITFGGPSDSTGSN G7T (APRITFTGPSDSTGSN) |  |  |  |  |  |  |  | 0 |  |  |
| APRITFGGPSDSTGSN T5W (APRIWFGGPSDSTGSN) |  |  |  |  |  |  |  |  | 0 |  |
| APRITFGGPSDSTGSN G8F (APRITFGFPSDSTGSN) |  |  | 0 |  |  |  |  |  |  |  |
| APRITFGGPSDSTGSN G14P (APRITFGGPSDSTPSN) |  |  |  |  | 0.002211 |  |  |  |  |  |
| APRITFGGPSDSTGSN G14S (APRITFGGPSDSTSSN) |  |  |  |  | 0.004295 |  |  |  |  |  |
| APRITFGGPSDSTGSN D11W (APRITFGGPSWSTGSN) | 0.001161 |  |  |  |  |  |  |  |  |  |
| APRITFGGPSDSTGSN F6K (APRITKGGPSDSTGSN) |  |  |  |  |  |  |  |  |  | 0 |
| APRITFGGPSDSTGSN T5D (APRIDFGGPSDSTGSN) |  |  |  |  |  |  |  |  | 0 |  |
| APRITFGGPSDSTGSN F6S (APRITSGGPSDSTGSN) |  |  |  |  |  |  |  |  |  | 0 |

| Sequence | DMS PSSM value, D (position 11) | DMS PSSM value, P (position 2) | DMS PSSM value, G (position 8) | DMS PSSM value, S (position 10) | DMS PSSM value, G (position 14) | DMS PSSM value, R (position 3) | DMS PSSM value, S (position 12) | DMS PSSM value, G (position 7) | DMS PSSM value, T (position 5) | DMS PSSM value, F (position 6) |
| --- | --- | --- | --- | --- | --- | --- | --- | --- | --- | --- |
| APRITFGGPSDSTGSN G14Q (APRITFGGPSDSTQSN) |  |  |  |  | 0.3116 |  |  |  |  |  |
| APRITFGGPSDSTGSN | 0.2538 | 0.199 | 0.05897 | 0.07098 | 0.009135 | 0.004269 | 0.1222 | 0.9101 | 0.4961 | 0.991 |
| APRITFGGPSDSTGSN G7A (APRITFAGPSDSTGSN) |  |  |  |  |  |  |  | 0 |  |  |
| APRITFGGPSDSTGSN T5Y (APRIYFGGPSDSTGSN) |  |  |  |  |  |  |  |  | 0 |  |
| APRITFGGPSDSTGSN D11M (APRITFGGPSMSTGSN) | 0.4258 |  |  |  |  |  |  |  |  |  |
| APRITFGGPSDSTGSN D11F (APRITFGGPSFSTGSN) | 0.001494 |  |  |  |  |  |  |  |  |  |
| APRITFGGPSDSTGSN S12I (APRITFGGPSDITGSN) |  |  |  |  |  |  | 0.4295 |  |  |  |
| APRITFGGPSDSTGSN T5F (APRIFFGGPSDSTGSN) |  |  |  |  |  |  |  |  | 0 |  |
| APRITFGGPSDSTGSN R3N (APNITFGGPSDSTGSN) |  |  |  |  |  | 0.0002259 |  |  |  |  |
| APRITFGGPSDSTGSN S10H (APRITFGGPHDSTGSN) |  |  |  | 0 |  |  |  |  |  |  |
| APRITFGGPSDSTGSN F6G (APRITGGGPSDSTGSN) |  |  |  |  |  |  |  |  |  | 0 |
| APRITFGGPSDSTGSN S12H (APRITFGGPSDHTGSN) |  |  |  |  |  |  | 0.0346 |  |  |  |
| APRITFGGPSDSTGSN F6E (APRITEGGPSDSTGSN) |  |  |  |  |  |  |  |  |  | 0 |
| APRITFGGPSDSTGSN T5E (APRIEFGGPSDSTGSN) |  |  |  |  |  |  |  |  | 0.4512 |  |
| APRITFGGPSDSTGSN S10P (APRITFGGPPDSTGSN) |  |  |  | 0.1036 |  |  |  |  |  |  |
| APRITFGGPSDSTGSN G8A (APRITFGAPSDSTGSN) |  |  | 0.9067 |  |  |  |  |  |  |  |
| APRITFGGPSDSTGSN R3T (APTITFGGPSDSTGSN) |  |  |  |  |  | 0.001362 |  |  |  |  |
| APRITFGGPSDSTGSN G7K (APRITFKGPSDSTGSN) |  |  |  |  |  |  |  | 0 |  |  |

Same assay, conditions: library DMS-CoV; bait G3BP1 NFT2; prey N; peptide APRITFGGPSDSTGSN; listed as aa = residue placed at this position; column sums to 1

| Sequence | DMS PSSM value, T (position 13) | DMS PSSM value, I (position 4) | DMS PSSM value, A (position 1) | DMS PSSM value, P (position 9) | DMS PSSM value, S (position 15) |
| --- | --- | --- | --- | --- | --- |
| APRITFGGPSDSTGSN T13F (APRITFGGPSDSFGSN) | 0.002251 |  |  |  |  |
| APRITFGGPSDSTGSN I4P (APRPTFGGPSDSTGSN) |  | 0 |  |  |  |
| APRITFGGPSDSTGSN | 0.03355 | 0.9676 | 0.1536 | 0.679 | 0.03905 |
| APRITFGGPSDSTGSN I4F (APRFTFGGPSDSTGSN) |  | 0 |  |  |  |
| APRITFGGPSDSTGSN T13S (APRITFGGPSDSSGSN) | 9.878e-5 |  |  |  |  |
| APRITFGGPSDSTGSN P9L (APRITFGGLSDSTGSN) |  |  |  | 0 |  |
| APRITFGGPSDSTGSN T13E (APRITFGGPSDSEGSN) | 0.0383 |  |  |  |  |
| APRITFGGPSDSTGSN S15P (APRITFGGPSDSTGPN) |  |  |  |  | 0.1504 |
| APRITFGGPSDSTGSN T13G (APRITFGGPSDSGGSN) | 0.00113 |  |  |  |  |
| APRITFGGPSDSTGSN A1F (FPRITFGGPSDSTGSN) |  |  | 0.0004523 |  |  |
| APRITFGGPSDSTGSN S15G (APRITFGGPSDSTGGN) |  |  |  |  | 0.002342 |
| APRITFGGPSDSTGSN I4Y (APRYTFGGPSDSTGSN) |  | 0 |  |  |  |
| APRITFGGPSDSTGSN I4K (APRKTFGGPSDSTGSN) |  | 0 |  |  |  |
